Measured values from patent US12227713B2, “Polysiloxane hydraulic fluids” (THE BOEING COMPANY, priority 2016, dated 2025).

Assay: Viscosity (ASTM D445)
Format: physicochemical
Description: The viscosity may be determined using the protocol in ASTM D445, and for example ASTM D445FL1 for low temperature measurements.

**Q.** For CCCCCCCCCCP(=O)(OCCCC)OCCCC [DiButyl Decane Phosphonate (AP32), DiButyl Decane Phosphonate], which “38 C. Viscosity (cP)” value is on record?
**A.** 4.91 ± 0.01 cP

**Q.** What about the “Room Temp (25 C.) Viscosity (cP)” value of the same compound?
**A.** 6.97 ± 001 cP

**Q.** And the “−54 C. Viscosity (cP)” value?
**A.** 706.2 ± 5.4 cP

**Q.** What does the source list for CCCCCCCCCCP(=O)(OCC)OCC [DiEthyl Decane Phosphonate (AP28), DiEthyl Decane Phosphonate]?
**A.** 38 C. Viscosity (cP): 4.89 ± 0.01 cP; Room Temp (25 C.) Viscosity (cP): 7.02 ± 0.04 cP; −54 C. Viscosity (cP): Frozen <3 hr
